The source of these data is patent publication US10004701B2, “Methods and compositions for treating infection” (UNIVERSITY OF ROCHESTER, priority 2012, dated 2018).

Where a name gives a salt, the structure may show the parent alone. Read-outs that look alike come from different tables or passages of the source.

What all share (assay): AK assay 384-well format, Prestwick library screening
Experiment [1] relates to E. coli. The experiment is classed as cell-based, Escherichia coli. The settings on record: 50 μM final drug concentration; for fold induction at 50 µM: Escherichia coli, 3 h.
Experiment [2] relates to P. aeruginosa. The experiment is classed as cell-based, Pseudomonas aeruginosa. The conditions noted are these: 50 μM final drug concentration; for fold induction at 50 µM: Pseudomonas aeruginosa, 3 h.
Experiment [3] deals with S. aureus strain USA300-0114. Format: cell-based, Staphylococcus aureus. The conditions noted are these: 50 μM final drug concentration; for fold induction at 50 µM: Staphylococcus aureus, USA300, 3 h.
Experiment [4] deals with E. faecium. The experiment is classed as cell-based, Enterococcus faecium. The settings on record: 50 μM final drug concentration; for fold induction at 50 µM: Enterococcus faecium, 3 h.
Experiment [5] relates to K. pneumoniae. The experiment is classed as cell-based, Klebsiella pneumoniae. The settings on record: 50 μM final drug concentration; for fold induction at 50 µM: Klebsiella pneumoniae, 3 h.
Experiment [6] relates to A. baumannii strain 98-37-09. The experiment is classed as cell-based, Acinetobacter baumannii. The settings on record: 50 μM final drug concentration; for fold induction at 50 µM: Acinetobacter baumannii, 983709, 3 h.
The subject of experiment [7] is E. cloacae. Format: cell-based, Enterobacter cloacae. The conditions noted are these: 50 μM final drug concentration; for fold induction at 50 µM: Enterobacter cloacae, 3 h.
Setting [8] is: cutoff for positive-scoring molecules 3-fold increase, read-out: AK-based Prestwick Library Screening Results, E. coli (fold increase in extracellular AK activity).
[9] abbreviates: cutoff for positive-scoring molecules 3-fold increase, read-out: AK-based Prestwick Library Screening Results, P. aeruginosa (fold increase in extracellular AK activity).
The mark [10] stands for this setting: cutoff for positive-scoring molecules 3-fold increase, read-out: AK-based Prestwick Library Screening Results, S. aureus (fold increase in extracellular AK activity).
Where [11] appears, read: cutoff for positive-scoring molecules 3-fold increase, read-out: AK-based Prestwick Library Screening Results, E. faecium (fold increase in extracellular AK activity).
Where [12] appears, read: cutoff for positive-scoring molecules 3-fold increase, read-out: AK-based Prestwick Library Screening Results, K. pneumoniae (fold increase in extracellular AK activity).
The mark [13] stands for this setting: cutoff for positive-scoring molecules 3-fold increase, read-out: AK-based Prestwick Library Screening Results, A. baumannii (fold increase in extracellular AK activity).
The mark [14] stands for this setting: cutoff for positive-scoring molecules 3-fold increase, read-out: AK-based Prestwick Library Screening Results, E. cloacae (fold increase in extracellular AK activity).
[15] abbreviates: planktonic, cutoff for positive-scoring molecules 3-fold increase, read-out: AK-based Prestwick Library Screening Results, E. coli (fold increase in extracellular AK activity).
The mark [16] stands for this setting: planktonic, cutoff for positive-scoring molecules 3-fold increase, read-out: AK-based Prestwick Library Screening Results, P. aeruginosa (fold increase in extracellular AK activity).
[17] abbreviates: planktonic, cutoff for positive-scoring molecules 3-fold increase, read-out: AK-based Prestwick Library Screening Results, S. aureus (fold increase in extracellular AK activity).
Setting [18] is: planktonic, cutoff for positive-scoring molecules 3-fold increase, read-out: AK-based Prestwick Library Screening Results, E. faecium (fold increase in extracellular AK activity).
Setting [19] is: planktonic, cutoff for positive-scoring molecules 3-fold increase, read-out: AK-based Prestwick Library Screening Results, K. pneumoniae (fold increase in extracellular AK activity).
The mark [20] stands for this setting: planktonic, cutoff for positive-scoring molecules 3-fold increase, read-out: AK-based Prestwick Library Screening Results, A. baumannii (fold increase in extracellular AK activity).
The mark [21] stands for this setting: planktonic, cutoff for positive-scoring molecules 3-fold increase, read-out: AK-based Prestwick Library Screening Results, E. cloacae (fold increase in extracellular AK activity).
[22] abbreviates: cutoff for positive-scoring molecules 3-fold increase.
[23] abbreviates: planktonic E. coli, 384-well, cutoff for positive-scoring molecules 3-fold increase, read-out: AK-based Prestwick Library Screening Results: E. coli (increase in extracellular AK activity).
[24] abbreviates: planktonic P. aeruginosa, 384-well, cutoff for positive-scoring molecules 3-fold increase, read-out: AK-based Prestwick Library Screening Results: P. aeruginosa (increase in extracellular AK activity).
Where [25] appears, read: planktonic S. aureus, 384-well, cutoff for positive-scoring molecules 3-fold increase, read-out: AK-based Prestwick Library Screening Results: S. aureus (increase in extracellular AK activity).
Where [26] appears, read: planktonic E. faecium, 384-well, cutoff for positive-scoring molecules 3-fold increase, read-out: AK-based Prestwick Library Screening Results: E. faecium (increase in extracellular AK activity).
Where [27] appears, read: planktonic K. pneumoniae, 384-well, cutoff for positive-scoring molecules 3-fold increase, read-out: AK-based Prestwick Library Screening Results: K. pneumoniae (increase in extracellular AK activity).
Setting [28] is: planktonic A. baumannii, 384-well, cutoff for positive-scoring molecules 3-fold increase, read-out: AK-based Prestwick Library Screening Results: A. baumannii (increase in extracellular AK activity).
The mark [29] stands for this setting: planktonic E. cloacae, 384-well, cutoff for positive-scoring molecules 3-fold increase, read-out: AK-based Prestwick Library Screening Results: E. cloacae (increase in extracellular AK activity).

Regarding `CCC(=O)OCC(=O)[C@@]1(OC(=O)CC)[C@@H](C)C[C@H]2[C@@H]3CCC4=CC(=O)C=C[C@]4(C)[C@@]3(Cl)[C@@H](O)C[C@@]21C` [Beclomethasone dipropionate], the fold induction at 50 µM worked out at 1.1 in experiment [1] (setting [8]); 1 in experiment [2] (setting [9]); 0.5 in experiment [3] (setting [10]); 1 in experiment [4] (setting [11]); 0.9 in experiment [5] (setting [12]); 1 in experiment [6] (setting [13]). Besides, the fold induction at 50 µM in experiment [7] (setting [14]) worked out at 1.5.
As to `C[C@]12CC[C@H](O)C[C@H]1CC[C@@H]1[C@@H]2C[C@@H](O)[C@]2(C)[C@@H](C3=CC(=O)OC3)CC[C@]12O` [Digoxigenin], the fold induction at 50 µM in experiment [1] (setting [15]) turned out to be 0.7; in experiment [2] (setting [16]) it was 0.5; in experiment [3] (setting [17]) it was 0.6; in experiment [4] (setting [18]), 0.8; in experiment [5] (setting [19]), 0.6; in experiment [6] (setting [20]) it was 0.6. Also, in experiment [7] (setting [21]), the fold induction at 50 µM is 0.7.
For the compound `COc1ccc(NS(=O)(=O)c2ccc(N)cc2)nn1` [Sulfamethoxypyridazine], the fold induction at 50 µM in experiment [1] (planktonic, cutoff for positive 3-fold increase, read-out: AK-based Prestwick Library Screening Results, E. coli (fold increase in extracellular AK activity)) stood at 0.5; in experiment [2] (planktonic, cutoff for positive 3-fold increase, read-out: AK-based Prestwick Library Screening Results, P. aeruginosa (fold increase in extracellular AK activity)) it was 0.3; in experiment [3] (planktonic, cutoff for positive 3-fold increase, read-out: AK-based Prestwick Library Screening Results, S. aureus (fold increase in extracellular AK activity)) it was 0.4; in experiment [4] (planktonic, cutoff for positive 3-fold increase, read-out: AK-based Prestwick Library Screening Results, E. faecium (fold increase in extracellular AK activity)) it was 0.9; in experiment [5] (planktonic, cutoff for positive 3-fold increase, read-out: AK-based Prestwick Library Screening Results, K. pneumoniae (fold increase in extracellular AK activity)), 0.5; in experiment [6] (planktonic, cutoff for positive 3-fold increase, read-out: AK-based Prestwick Library Screening Results, A. baumannii (fold increase in extracellular AK activity)) it was 0.7. For the same compound, in experiment [7] (planktonic, cutoff for positive 3-fold increase, read-out: AK-based Prestwick Library Screening Results, E. cloacae (fold increase in extracellular AK activity)), the fold induction at 50 µM stood at 0.3.
As for Timolol maleate salt, in experiment [1] (setting [22]), the “AK-based Prestwick Library Screening Results, E. coli (fold increase in extracellular AK activity)” value was found to be 1.3. In addition, the “AK-based Prestwick Library Screening Results, P. aeruginosa (fold increase in extracellular AK activity)” value in experiment [2] (setting [22]) turned out to be 1.1. Besides, the “AK-based Prestwick Library Screening Results, S. aureus (fold increase in extracellular AK activity)” value in experiment [3] (setting [22]) was determined as 1.3. Also, in experiment [4] (setting [22]), the “AK-based Prestwick Library Screening Results, E. faecium (fold increase in extracellular AK activity)” value is 1.0. Also, the “AK-based Prestwick Library Screening Results, K. pneumoniae (fold increase in extracellular AK activity)” value in experiment [5] (setting [22]) came out at 1.1. Also, in experiment [6] (setting [22]), the “AK-based Prestwick Library Screening Results, A. baumannii (fold increase in extracellular AK activity)” value came to 1.5. For the same compound, the “AK-based Prestwick Library Screening Results, E. cloacae (fold increase in extracellular AK activity)” value in experiment [7] (setting [22]) came to 1.4.
Regarding `CCOC(=O)c1ccc(N)cc1` [Benzocaine], the fold induction at 50 µM in experiment [1] (setting [8]) was 1.1; in experiment [2] (setting [9]), 1.1; in experiment [3] (setting [10]) it was 1.2; in experiment [4] (setting [11]) it was 1; in experiment [5] (setting [12]), 0.9; in experiment [6] (setting [13]), 1.2. Moreover, in experiment [7] (setting [14]), the fold induction at 50 µM was 1.6.
Turning to `CC(C)(C)NC(=O)[C@H]1CC[C@H]2[C@@H]3CC[C@H]4NC(=O)C=C[C@]4(C)[C@H]3CC[C@]12C` [Finasteride], the fold induction at 50 µM in experiment [1] (setting [8]) is 1.1; in experiment [2] (setting [9]), 1.1; in experiment [3] (setting [10]), 1; in experiment [4] (setting [11]), 1.1; in experiment [5] (setting [12]), 0.9; in experiment [6] (setting [13]) it was 1.2. The fold induction at 50 µM in experiment [7] (setting [14]) came to 1.8.
Regarding `CN(C)CCOC(c1ccccc1)c1ccccc1` [Diphenhydramine hydrochloride], the fold induction at 50 µM in experiment [1] (setting [23]) was 1.3; in experiment [2] (setting [24]) it was 1; in experiment [3] (setting [25]), 1.1; in experiment [4] (setting [26]) it was 0.9; in experiment [5] (setting [27]) it was 1; in experiment [6] (setting [28]), 1.3. Further, the fold induction at 50 µM in experiment [7] (setting [29]) amounted to 1.4.
As to `C/C(=C(\CCOP(=O)(O)O)SC(=O)c1ccccc1)N(C=O)Cc1cnc(C)nc1N` [Benfotiamine], the fold induction at 50 µM in experiment [1] (setting [15]) turned out to be 0.7; in experiment [2] (setting [16]), 0.6; in experiment [3] (setting [17]), 0.5; in experiment [4] (setting [18]), 0.9; in experiment [5] (setting [19]) it was 0.6; in experiment [6] (setting [20]) it was 0.7. For the same compound, in experiment [7] (setting [21]), the fold induction at 50 µM came out at 0.8.
Turning to `CCn1cc(C(=O)O)c(=O)c2cc(F)c(N3CCNCC3)cc21` [Norfloxacin], the fold induction at 50 µM in experiment [1] (setting [23]) amounted to 33.1; in experiment [2] (setting [24]), 31.3; in experiment [3] (setting [25]), 1.8; in experiment [4] (setting [26]) it was 1.5; in experiment [5] (setting [27]) it was 0.8; in experiment [6] (setting [28]) it was 3.1. The fold induction at 50 µM in experiment [7] (setting [29]) came out at 3.1.
For `COC(=O)Nc1nc2ccc(C(=O)c3cccs3)cc2[nH]1` [Nocodazole], the fold induction at 50 µM in experiment [1] (384-well format, cutoff for positive-scoring molecules 3-fold increase, read-out: AK-based Prestwick Library Screening Results, E. coli (increase in extracellular AK activity)) was determined as 0.6; in experiment [2] (384-well format, cutoff for positive-scoring molecules 3-fold increase, read-out: AK-based Prestwick Library Screening Results, P. aeruginosa (increase in extracellular AK activity)), 0.6; in experiment [3] (384-well format, cutoff for positive-scoring molecules 3-fold increase, read-out: AK-based Prestwick Library Screening Results, S. aureus (increase in extracellular AK activity)) it was 0.6; in experiment [4] (384-well format, cutoff for positive-scoring molecules 3-fold increase, read-out: AK-based Prestwick Library Screening Results, E. faecium (increase in extracellular AK activity)), 0.9; in experiment [5] (384-well format, cutoff for positive-scoring molecules 3-fold increase, read-out: AK-based Prestwick Library Screening Results, K. pneumoniae (increase in extracellular AK activity)), 0.5; in experiment [6] (384-well format, cutoff for positive-scoring molecules 3-fold increase, read-out: AK-based Prestwick Library Screening Results, A. baumannii (increase in extracellular AK activity)), 0.6. The fold induction at 50 µM in experiment [7] (384-well format, cutoff for positive-scoring molecules 3-fold increase, read-out: AK-based Prestwick Library Screening Results, E. cloacae (increase in extracellular AK activity)) was determined as 0.7.
